Earlier results, collected in US12378302B2, “Fusion molecules and uses thereof” (Foundation Medicine, Inc., priority 2012, dated 2025).
Read-outs that look alike come from different tables or passages of the source.

Assays:
Smad4-null cells = conditions: pre-clinical mouse models
PDGFR = conditions: read-out: IC50 PDGFR
[1] = system: advanced non-small cell lung cancer
ErbB3 = ErbB3 (Homo sapiens, UniProt P21860)
pancreatic cancer [2] = conditions: Phase 2, pancreatic cancer
pancreatic cancer [3] = conditions: Phase 2, gefitinib with gemcitabine
ErbB4 = target: T1, ErbB4 (Homo sapiens, UniProt Q15303)
T1 construct: host or cells: glioblastoma cell lines

[4] = system: KIF5B-RET transformed cells; conditions: Lipson et al
[5] = system: Vps34, AKT, PDK1, p70S6K, MEK, ERK, p38, or JNK
PI3Kγ = PI3Kγ (Homo sapiens, UniProt P48736); conditions: read-out: Ki PI3Kγ (p110γ)
[6] = system: early stage NSCLC patients; conditions: Phase 2 trial
advanced cervical cancer = conditions: Phase 2, pazopanib arm compared to lapatinib therapy
[7] = system: advanced urothelial cancer; conditions: Phase 2, single agent
inactive form of ErbB4 = inactive form of ErbB4 (Homo sapiens, UniProt Q15303); conditions: region conserved in all EGF family members
all four Fgfr kinases [8] = system: all four Fgfr kinases
all four Fgfr kinases [9] = conditions: preclinical studies
[10] = system: cells expressing FGFR1 fusions
MTC = conditions: randomized Phase 3, vandetanib compared to placebo
VEGFR-stimulated cells [11] = conditions: read-out: IC50 cell proliferation of VEGFR-stimulated cells
VEGFR-stimulated cells [12] = conditions: read-out: IC50 cell proliferation of VEGFR-stimulated cells; remark: listed apart in the source
EGFR-stimulated HUVEC [13] = conditions: read-out: IC50 EGFR-stimulated HUVEC proliferation
EGFR-stimulated HUVEC [14] = conditions: read-out: IC50 EGFR-stimulated HUVEC proliferation; remark: listed apart in the source

Chain of ErbB3 (P21860 20-1342): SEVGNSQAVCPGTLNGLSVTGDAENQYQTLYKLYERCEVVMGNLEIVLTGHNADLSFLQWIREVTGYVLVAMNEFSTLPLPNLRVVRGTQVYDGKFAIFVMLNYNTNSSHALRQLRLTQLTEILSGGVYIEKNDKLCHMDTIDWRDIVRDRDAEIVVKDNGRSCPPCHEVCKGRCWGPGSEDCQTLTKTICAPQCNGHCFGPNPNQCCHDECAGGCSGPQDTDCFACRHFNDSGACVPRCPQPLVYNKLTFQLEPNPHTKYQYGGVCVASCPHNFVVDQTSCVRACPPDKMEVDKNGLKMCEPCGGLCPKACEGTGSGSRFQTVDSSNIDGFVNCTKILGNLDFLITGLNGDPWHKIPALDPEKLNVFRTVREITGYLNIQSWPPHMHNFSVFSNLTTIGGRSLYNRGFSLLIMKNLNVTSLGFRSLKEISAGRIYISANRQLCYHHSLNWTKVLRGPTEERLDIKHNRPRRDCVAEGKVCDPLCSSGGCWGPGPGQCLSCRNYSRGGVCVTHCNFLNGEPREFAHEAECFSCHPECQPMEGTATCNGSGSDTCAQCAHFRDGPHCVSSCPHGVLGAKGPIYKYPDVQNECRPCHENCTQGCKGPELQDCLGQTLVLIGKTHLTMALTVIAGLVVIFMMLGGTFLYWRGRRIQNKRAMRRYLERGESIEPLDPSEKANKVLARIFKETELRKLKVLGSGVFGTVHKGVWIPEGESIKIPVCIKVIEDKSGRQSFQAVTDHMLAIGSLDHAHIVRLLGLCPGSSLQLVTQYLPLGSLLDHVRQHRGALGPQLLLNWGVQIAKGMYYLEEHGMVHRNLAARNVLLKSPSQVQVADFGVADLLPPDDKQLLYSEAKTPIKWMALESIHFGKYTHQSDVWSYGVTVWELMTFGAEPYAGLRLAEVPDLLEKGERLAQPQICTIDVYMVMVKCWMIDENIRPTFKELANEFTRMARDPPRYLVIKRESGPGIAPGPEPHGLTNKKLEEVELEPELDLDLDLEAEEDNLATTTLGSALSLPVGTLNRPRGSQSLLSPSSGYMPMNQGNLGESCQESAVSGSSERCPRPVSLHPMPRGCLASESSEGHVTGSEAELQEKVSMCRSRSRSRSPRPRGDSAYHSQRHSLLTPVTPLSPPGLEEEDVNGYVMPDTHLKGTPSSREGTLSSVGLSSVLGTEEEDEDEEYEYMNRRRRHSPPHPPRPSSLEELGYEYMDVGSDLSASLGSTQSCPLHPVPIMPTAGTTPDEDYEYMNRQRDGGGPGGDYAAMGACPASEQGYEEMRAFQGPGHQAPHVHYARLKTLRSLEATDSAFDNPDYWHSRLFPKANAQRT
T1 sequence (Q15303 26-1308): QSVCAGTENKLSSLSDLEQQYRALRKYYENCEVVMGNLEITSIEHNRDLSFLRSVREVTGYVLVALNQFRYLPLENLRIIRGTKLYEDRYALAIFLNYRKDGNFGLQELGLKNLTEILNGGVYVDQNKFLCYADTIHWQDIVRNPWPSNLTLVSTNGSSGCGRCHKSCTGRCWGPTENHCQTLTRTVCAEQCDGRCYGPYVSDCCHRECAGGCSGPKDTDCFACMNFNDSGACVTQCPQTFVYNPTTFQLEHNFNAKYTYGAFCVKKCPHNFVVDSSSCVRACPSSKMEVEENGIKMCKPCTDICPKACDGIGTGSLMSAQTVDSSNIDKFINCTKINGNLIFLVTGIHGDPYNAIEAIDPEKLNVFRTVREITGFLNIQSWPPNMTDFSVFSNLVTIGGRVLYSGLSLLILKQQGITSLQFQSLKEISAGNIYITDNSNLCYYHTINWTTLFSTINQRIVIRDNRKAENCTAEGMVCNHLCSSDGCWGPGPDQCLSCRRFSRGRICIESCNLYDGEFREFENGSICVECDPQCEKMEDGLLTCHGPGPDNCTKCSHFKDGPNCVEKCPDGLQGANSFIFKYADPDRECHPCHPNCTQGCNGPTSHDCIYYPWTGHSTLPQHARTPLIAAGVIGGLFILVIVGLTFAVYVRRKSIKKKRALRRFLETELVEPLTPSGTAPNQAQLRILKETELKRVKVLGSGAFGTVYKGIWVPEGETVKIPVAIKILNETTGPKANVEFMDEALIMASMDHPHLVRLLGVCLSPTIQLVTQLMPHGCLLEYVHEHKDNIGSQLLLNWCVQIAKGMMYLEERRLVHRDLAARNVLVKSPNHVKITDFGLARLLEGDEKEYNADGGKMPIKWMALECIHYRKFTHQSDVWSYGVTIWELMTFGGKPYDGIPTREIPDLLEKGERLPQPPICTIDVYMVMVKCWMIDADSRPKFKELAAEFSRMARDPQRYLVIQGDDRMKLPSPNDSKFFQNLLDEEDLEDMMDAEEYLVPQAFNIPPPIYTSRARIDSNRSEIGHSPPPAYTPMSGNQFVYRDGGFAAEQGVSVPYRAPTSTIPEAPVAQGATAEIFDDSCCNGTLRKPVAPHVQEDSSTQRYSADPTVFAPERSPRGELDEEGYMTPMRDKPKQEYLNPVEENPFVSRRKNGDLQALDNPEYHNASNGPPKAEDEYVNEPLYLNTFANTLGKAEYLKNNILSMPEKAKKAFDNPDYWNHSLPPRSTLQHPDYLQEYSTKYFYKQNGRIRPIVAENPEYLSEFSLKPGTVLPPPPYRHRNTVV
Chain of PI3Kγ (P48736 whole entry): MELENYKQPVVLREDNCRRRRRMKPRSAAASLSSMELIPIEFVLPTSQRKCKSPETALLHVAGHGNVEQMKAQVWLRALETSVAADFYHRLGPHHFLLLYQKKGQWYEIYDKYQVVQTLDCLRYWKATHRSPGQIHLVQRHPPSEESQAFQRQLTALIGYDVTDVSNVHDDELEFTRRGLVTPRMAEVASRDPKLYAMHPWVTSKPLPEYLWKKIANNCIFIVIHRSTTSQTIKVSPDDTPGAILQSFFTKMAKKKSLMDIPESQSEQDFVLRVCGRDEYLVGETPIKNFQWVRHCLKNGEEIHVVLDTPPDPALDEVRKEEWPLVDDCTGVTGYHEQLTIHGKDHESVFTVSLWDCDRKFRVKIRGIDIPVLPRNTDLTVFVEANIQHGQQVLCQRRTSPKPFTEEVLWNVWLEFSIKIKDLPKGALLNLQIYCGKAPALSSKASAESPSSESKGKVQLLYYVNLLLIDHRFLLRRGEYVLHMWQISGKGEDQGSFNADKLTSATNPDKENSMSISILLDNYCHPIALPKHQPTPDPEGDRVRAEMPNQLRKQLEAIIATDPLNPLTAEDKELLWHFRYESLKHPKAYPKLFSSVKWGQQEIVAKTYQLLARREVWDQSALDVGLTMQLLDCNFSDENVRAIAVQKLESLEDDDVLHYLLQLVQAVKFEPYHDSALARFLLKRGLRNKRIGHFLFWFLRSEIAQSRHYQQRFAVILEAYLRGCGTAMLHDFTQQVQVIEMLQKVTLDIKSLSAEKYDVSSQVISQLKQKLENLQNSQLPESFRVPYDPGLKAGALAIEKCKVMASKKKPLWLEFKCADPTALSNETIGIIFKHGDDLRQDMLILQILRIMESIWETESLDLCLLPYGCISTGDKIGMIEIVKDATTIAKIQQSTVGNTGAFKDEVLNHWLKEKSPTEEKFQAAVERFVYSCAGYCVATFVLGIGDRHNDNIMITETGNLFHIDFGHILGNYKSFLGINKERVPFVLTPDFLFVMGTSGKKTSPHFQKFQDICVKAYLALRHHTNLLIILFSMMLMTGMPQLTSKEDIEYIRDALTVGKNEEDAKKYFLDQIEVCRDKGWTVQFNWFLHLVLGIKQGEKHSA
Chain of inactive form of ErbB4 (Q15303 702-1029 limits assumed): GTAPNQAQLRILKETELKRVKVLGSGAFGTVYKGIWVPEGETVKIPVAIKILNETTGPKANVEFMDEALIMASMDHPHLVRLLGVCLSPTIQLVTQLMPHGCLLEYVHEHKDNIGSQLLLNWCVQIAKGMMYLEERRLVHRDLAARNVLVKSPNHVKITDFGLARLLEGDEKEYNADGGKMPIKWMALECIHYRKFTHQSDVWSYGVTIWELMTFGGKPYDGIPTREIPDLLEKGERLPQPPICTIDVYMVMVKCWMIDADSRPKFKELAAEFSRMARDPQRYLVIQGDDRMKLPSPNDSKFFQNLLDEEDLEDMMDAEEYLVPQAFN

## c1ccc(-c2nn3c(c2-c2ccnc4cc(OCCN5CCOCC5)ccc24)CCC3)nc1 [LY2109761, 7-(2-morpholinoethoxy)-4-(2-(pyridin-2-yl)-5,6-dihydro-4H-pyrrolo[1,2-b]pyrazol-3-yl)quinoline]
Smad4-null cells
  metastasis of Smad4-null cells: block metastasis

## Nc1ncnc2c1c(-c1cnc3[nH]ccc3c1)nn2C1CCCC1 [PP-121, 1-cyclopentyl-3-(1H-pyrrolo[2,3-b]pyridin-5-yl)-1H-pyrazolo[3,4-d]pyrimidin-4-amine]
PDGFR
  IC50: 2 nM

## COc1cc2ncnc(Nc3ccc(F)c(Cl)c3)c2cc1OCCCN1CCOCC1 [gefitinib]
[1]; chemo-naïve patients with known EGFR mutations in their tumor
  progression-free survival compared with combination chemotherapy: significant improvement in progression-free survival
[1]; patients who had progressed on first-line therapy
  survival benefit compared to placebo: failed to show a survival benefit
ErbB3
  binding to ErbB3, preventing phosphorylation and therefore activation: bind
Pancreatic cancer [2]
  efficacy: some efficacy
Pancreatic cancer [3]
  instances of stable disease: 12/53
  responses: 6/53
ErbB4
  binding to ErbB4, preventing phosphorylation and therefore activation: bind
[4]
  sensitivity of KIF5B-RET transformed cells: not
Glioblastoma cell lines
  Akt/Erk pathway: decrease
  cell cycle: cell cycle arrest

## COc1ccc(-c2cc3c(C)nc(N)nc3n([C@H]3CC[C@H](OCCO)CC3)c2=O)cn1 [PF-04691502, 2-amino-8-((1r,4r)-4-(2-hydroxyethoxy)cyclohexyl)-6-(6-methoxypyridin-3-yl)-4-methylpyrido[2,3-d]pyrimidin-7(8H)-one]
[5]
  activity against Vps34, AKT, PDK1, p70S6K, MEK, ERK, p38, or JNK: little activity

## COc1ncc(-c2ccc3nccc(-c4ccnnc4)c3c2)cc1NS(=O)(=O)c1ccc(F)cc1F [GSK2126458, 2,4-difluoro-N-(2-methoxy-5-(4-(pyridazin-4-yl)quinolin-6-yl)pyridin-3-yl)benzenesulfonamide]
PI3Kγ
  Ki: 0.024 nM

## Cc1ccc(Nc2nccc(N(C)c3ccc4c(C)n(C)nc4c3)n2)cc1S(N)(=O)=O [pazopanib]
[6]
  patients who achieved partial response: 3 patients
[6]; 30/35
  patients who experienced a reduction in tumor volume: 86%
Advanced cervical cancer
  PFS and OS: improved PFS and OS
[7]
  Disease control rate: 51.2%
  Partial responses (patients/enrolled): 7/41
  Stable disease (patients/enrolled): 14/41

## CS(=O)(=O)CCNCc1ccc(-c2ccc3ncnc(Nc4ccc(OCc5cccc(F)c5)c(Cl)c4)c3c2)o1 [lapatinib]
ErbB3
  binding to ErbB3, preventing phosphorylation and therefore activation: bind
ErbB4
  binding to ErbB4, preventing phosphorylation and therefore activation: bind
Glioblastoma cell lines
  Akt/Erk pathway: decrease
  cell cycle: cell cycle arrest
Inactive form of ErbB4
  binding to ErbB4: bind an inactive form of ErbB4

## Cc1ccc(C(=O)Nc2ccc(CN3CCN(C)CC3)c(C(F)(F)F)c2)cc1C#Cc1cnc2cccnn12 [ponatinib]
All four Fgfr kinases [8]
  activity against all four Fgfr kinases: substantial activity
All four Fgfr kinases [9]
  activity against all four Fgfr kinases: substantial activity

## Cc1nc(Nc2ncc(C(=O)Nc3c(C)cccc3Cl)s2)cc(N2CCN(CCO)CC2)n1 [dasatinib]
[10]
  sensitivity of cells expressing FGFR1 fusions: sensitivity

## COc1cc2c(Nc3ccc(Br)cc3F)ncnc2cc1OCC1CCN(C)CC1 [vandetanib]
MTC
  PFS: significant improvement in PFS
VEGFR-stimulated cells [11]
  IC50: 60 nM
VEGFR-stimulated cells [12]
  IC50: 60 nM
EGFR-stimulated HUVEC [13]
  IC50: 170 nM
EGFR-stimulated HUVEC [14]
  IC50: 170 nM
